Laboratory results reported in patent US20250145639A1, “MUTANT KRAS MODULATORS AND USES THEREOF” (NEWAVE PHARMACEUTICAL INC., priority 2021, published 2025).

What was measured:
[1] = target: HIS-KRAS (G12V) (Homo sapiens, UniProt P01116, G12V); assay: KRas G12V binding assay (TR-FRET, SOS1-mediated BODIPY FL GTP nucleotide exchange); conditions: GDP-loaded HIS-KRAS (G12V) 3 nM, 1 hour pre-incubation with compound, 4 hours with SOS1 ExD and BODIPY FL GTP at 25° C
Procedure: Biological Example 3: KRas G12V Binding Assay
HIS-KRAS (G12V) was diluted to 5 uM in EDTA buffer (20 mM HEPES, pH 7.4, 50 mM NaCl, 10 mM EDTA, 0.01% (v/v) Tween-20) and incubated for 30 min at 25° C. The EDTA pretreated HIS-KRAS (G12V) was diluted to 12 nM in assay buffer (25 mM HEPES, pH 7.4, 120 mM NaCl, 5 mM MgCl 2, 1 mM DTT, 0.01% (v/v) Tween 20, 0.1% (w/v) BSA) containing 120 nM GDP (Sigma) and MAb Anti 6HIS—Tb cryptate Gold (Cisbio) and incubated for 1 hour at 25° C. to prepare GDP-loaded HIS-KRAS (G12V). The GDP-loaded HIS-KRAS (G12V) was pre-incubation with diluted compounds in a 384-well plate (Greiner) for 1 hour, then purified SOS1 ExD (Flag tag, aa 564-1049) and BODIPY™ FL GTP (Invitrogen) were added to the assay wells (Final concentration: 3 nM HIS-KRAS (G12V), 2 uM SOS1 ExD, 80 nM BODIPY™ FL GTP, 21 ng/mL MAb Anti 6HIS—Tb cryptate Gold) and incubated for 4 hours at 25° C. TR-FRET signals were then read on Tecan Spark multimode microplate reader. The parameters were F486: Excitation 340 (35) nm, Emission 486 (10) nm, Lag time 100 μs, Integration time 200 μs; F515: Excitation 340 (35) nm, Emission 515 (10) nm, Lag time 100 μs, Integration time 200 μs. TR-FRET ratios for each individual wells were calculated by equation: TR-FRET ratio=(Signal F515/Signal F486)*10000. Then the data were analyzed using a 4-parameter logistic model to calculate IC50 values. The following table lists the IC50 values of certain compounds of the invention.

[2] = target: T1, HIS-KRAS (G12C, aa 2-185) (Homo sapiens, UniProt P01116, G12C); assay: KRas G12C binding assay (TR-FRET, SOS1-mediated BODIPY FL GTP nucleotide exchange); conditions: GDP-loaded HIS-KRAS (G12C) 3 nM, 1 hour pre-incubation with compound, 4 hours with SOS1 ExD and BODIPY FL GTP at 25° C
T1 construct: HIS-KRAS (G12C, aa 2-185, Sino biological); purchased Sino biological
T1 sequence (P01116 2-185 isoform P01116-2 G12C): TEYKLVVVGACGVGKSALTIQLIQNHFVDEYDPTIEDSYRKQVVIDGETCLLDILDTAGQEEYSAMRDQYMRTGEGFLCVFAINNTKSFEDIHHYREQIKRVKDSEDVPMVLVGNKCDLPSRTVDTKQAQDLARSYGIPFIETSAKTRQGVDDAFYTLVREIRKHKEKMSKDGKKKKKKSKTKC
Procedure: Biological Example 1: KRas G12C Binding Assay
HIS-KRAS (G12C, aa 2-185, Sino biological) was diluted to 5 uM in EDTA buffer (20 mM HEPES, pH 7.4, 50 mM NaCl, 10 mM EDTA, 0.01% (v/v) Tween-20) and incubated for 30 min at 25° C. The EDTA pretreated HIS-KRAS (G12C) was diluted to 12 nM in assay buffer (25 mM HEPES, pH 7.4, 120 mM NaCl, 5 mM MgCl 2, 1 mM DTT, 0.01% (v/v) Tween 20, 0.1% (w/v) BSA) containing 120 nM GDP (Sigma) and MAb Anti 6HIS—Tb cryptate Gold (Cisbio) and incubated for 1 hour at 25° C. to prepare GDP-loaded HIS-KRAS (G12C). The GDP-loaded HIS-KRAS (G12C) was pre-incubation with diluted compounds in a 384-well plate (Greiner) for 1 hour, then purified SOS1 ExD (Flag tag, aa 564-1049) and BODIPY™ FL GTP (Invitrogen) were added to the assay wells (Final concentration: 3 nM HIS-KRAS (G12C), 2 uM SOS1 ExD, 80 nM BODIPY™ FL GTP, 21 ng/mL MAb Anti 6HIS—Tb cryptate Gold) and incubated for 4 hours at 25° C. TR-FRET signals were then read on Tecan Spark multimode microplate reader. The parameters were F486: Excitation 340 (35) nm, Emission 486 (10) nm, Lag time 100 μs, Integration time 200 μs; F515: Excitation 340 (35) nm, Emission 515 (10) nm, Lag time 100 μs, Integration time 200 μs. TR-FRET ratios for each individual wells were calculated by equation: TR-FRET ratio=(Signal F515/Signal F486)*10000. Then the data were analyzed using a 4-parameter logistic model to calculate IC50 values. The following table lists the IC50 values of certain compounds of the invention.

[3] = target: T2, GDP-loaded, histidine-tagged, truncated (1-169) KRAS G12C (Homo sapiens, UniProt P01116, G12C); assay: KRas G12C in vitro covalent MS-based assay; format: binding; conditions: KRAS protein 2 uM, denaturing SEC-MS intact mass
T2 construct: histidine-tagged, truncated (1-169) KRAS proteins; His
T2 sequence (P01116 1-169 isoform P01116-2 G12C): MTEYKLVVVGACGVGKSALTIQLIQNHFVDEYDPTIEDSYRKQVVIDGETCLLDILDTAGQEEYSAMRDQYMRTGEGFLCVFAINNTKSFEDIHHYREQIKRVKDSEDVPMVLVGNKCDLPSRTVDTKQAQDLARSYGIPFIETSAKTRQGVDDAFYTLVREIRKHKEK
Procedure: Biological Example 2: KRas G12C In Vitro Covalent MS-Based Assay
GDP-loaded, histidine-tagged, truncated (1-169) KRAS proteins (G12C, WT, G13D, as indicated) at 2 uM final concentration were incubated with the test compounds at the doses and time points indicated in a buffer containing 20 mmol/L HEPES pH 7.5, 150 mmol/L NaCl, 1 mmol/L MgCl 2, and 1 mmol/L DTT. Reactions were quenched by adding formic acid to 0.2%. Samples were buffer exchanged and analyzed by denaturing SEC-MS (Orbitrap Eclipse), Mobile phase: 30% ACN, 0.1% formic acid, 0.02% TFA. Raw data were analyzed by charge state deconvolution with BioPharma Finder 4.1 Intact Mass, ReSpect and Sliding Window algorithms. The masses were calculated via software for KRAS_G12C theoretical sequence and experimental compounds.

Chain of HIS-KRAS (G12V) (P01116 1-188 isoform P01116-2 G12V): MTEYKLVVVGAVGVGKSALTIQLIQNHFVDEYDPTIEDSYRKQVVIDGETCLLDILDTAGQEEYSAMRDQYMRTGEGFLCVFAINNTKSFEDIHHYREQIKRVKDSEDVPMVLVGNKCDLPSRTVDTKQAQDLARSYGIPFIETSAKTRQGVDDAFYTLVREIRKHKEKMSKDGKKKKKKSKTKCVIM

Question: Which results are given for `C#Cc1c(F)ccc2cc(O)cc(-c3ncc4c(N5C[C@H]6CC[C@@H](C5)N6C(=O)C=C)nc(OC[C@]5(C)C[C@@H](F)CN5C)nc4c3F)c12` [Example 13, 1-((1R,5S)-3-(7-(8-ethynyl-7-fluoro-3-hydroxynaphthalen-1-yl)-8-fluoro-2-(((2S,4R)-4-fluoro-1,2-dimethylpyrrolidin-2-yl)methoxy)pyrido[4,3-d]pyrimidin-4-yl)-3,8-diazabicyclo[3.2.1]octan-8-yl)prop-2-en-1-one]?
Answer: IC50 [1]: 13.7 nM; IC50 [2]: 0.96 nM

Question: What does the source list for `C#Cc1cccc2cc(O)cc(-c3ncc4c(N5CC6CCC(C5)N6C(=O)C=C)nc(OC[C@@]56CCCN5C[C@H](F)C6)nc4c3F)c12` [Example 1, 1-[3-(2-{[(2R,7aS)-2-fluoro-hexahydropyrrolizin-7a-yl]methoxy}-7-(8-ethynyl-3-hydroxynaphthalen-1-yl)-8-fluoropyrido[4,3-d]pyrimidin-4-yl)-3,8-diazabicyclo[3.2.1]octan-8-yl]prop-2-en-1-one]?
Answer: IC50 [1]: 4.37 nM; IC50 [2]: 10.6 nM

Question: `C#Cc1c(F)ccc2cc(O)cc(-c3ncc4c(N5C[C@H]6CC[C@@H](C5)N6C(=O)C=C)nc(OCC56CCCN5CCC6)nc4c3F)c12` [Example 5, 1-((1R,5S)-3-(7-(8-ethynyl-7-fluoro-3-hydroxynaphthalen-1-yl)-8-fluoro-2-((tetrahydro-1H-pyrrolizin-7a(5H)-yl)methoxy)pyrido[4,3-d]pyrimidin-4-yl)-3,8-diazabicyclo[3.2.1]octan-8-yl)prop-2-en-1-one] was tested. Which IC50 [1] did it give?
Answer: 0.19 nM

Question: And the IC50 [2]?
Answer: 0.37 nM

Question: And the “Binding Model” value [3]?
Answer: Covalent binding

Question: Which results are given for `C#Cc1c(F)ccc2cc(O)cc(-c3ncc4c(N(C)C[C@@H]5CCCN5C(=O)C=C)nc(OC[C@@]56CCCN5C[C@H](F)C6)nc4c3F)c12` [Example 2, 1-[(2S)-2-{[(2-{[(2R,7aS)-2-fluoro-hexahydropyrrolizin-7a-yl]methoxy}-7-(8-ethynyl-7-fluoro-3-hydroxynaphthalen-1-yl)-8-fluoropyrido[4,3-d]pyrimidin-4-yl)(methyl)amino]methyl}pyrrolidin-1-yl]prop-2-en-1-one]?
Answer: IC50 [1]: 0.54 nM; IC50 [2]: 0.41 nM; Binding Model [3]: Covalent binding

Question: Which IC50 [1] does the source give for `C#Cc1c(F)ccc2cc(O)cc(-c3ncc4c(NCC5(N(C)C(=O)C=C)CCC5)nc(OCC56CCCN5CCC6)nc4c3F)c12` [Example 10, N-(1-(((7-(8-ethynyl-7-fluoro-3-hydroxynaphthalen-1-yl)-8-fluoro-2-((tetrahydro-1H-pyrrolizin-7a(5H)-yl)methoxy)pyrido[4,3-d]pyrimidin-4-yl)amino)methyl)cyclobutyl)-N-methylacrylamide] here?
Answer: 5.1 nM

Question: And the IC50 [2]?
Answer: 2.7 nM

Question: Which results are given for `C#Cc1c(F)ccc2cc(O)cc(-c3ncc4c(NCC5(N(C)C(=O)C=C)CCCC5)nc(OCC56CCCN5CCC6)nc4c3F)c12` [Example 11, N-(1-(((7-(8-ethynyl-7-fluoro-3-hydroxynaphthalen-1-yl)-8-fluoro-2-((tetrahydro-1H-pyrrolizin-7a(5H)-yl)methoxy)pyrido[4,3-d]pyrimidin-4-yl)amino)methyl)cyclopentyl)-N-methylacrylamide]?
Answer: IC50 [1]: 3.5 nM; IC50 [2]: 1.6 nM

Question: With `C#Cc1c(F)ccc2cc(O)cc(-c3ncc4c(N5C[C@H]6CC[C@@H](C5)N6C(=O)C=C)nc(N5CC(N(C)C)C5)nc4c3F)c12` [Example 4, 1-((1R,5S)-3-(2-(3-(dimethylamino)azetidin-1-yl)-7-(8-ethynyl-7-fluoro-3-hydroxynaphthalen-1-yl)-8-fluoropyrido[4,3-d]pyrimidin-4-yl)-3,8-diazabicyclo[3.2.1]octan-8-yl)prop-2-en-1-one] as the compound, how does the IC50 [1] read?
Answer: 95.8 nM

Question: And the IC50 [2]?
Answer: 3.34 nM

Question: How did the IC50 [1] turn out when `C#Cc1c(F)ccc2cc(O)cc(-c3ncc4c(N5C[C@H]6CC[C@@H](C5)N6C(=O)C=C)nc(OC[C@@H]5CCCCN5C)nc4c3F)c12` [Example 7, 1-((1R,5S)-3-(7-(8-ethynyl-7-fluoro-3-hydroxynaphthalen-1-yl)-8-fluoro-2-(((S)-1-methylpiperidin-2-yl)methoxy)pyrido[4,3-d]pyrimidin-4-yl)-3,8-diazabicyclo[3.2.1]octan-8-yl)prop-2-en-1-one] was run?
Answer: 5.87 nM

Question: And the IC50 [2]?
Answer: 0.41 nM

Question: How did the IC50 [1] turn out when `C#Cc1c(F)ccc2cccc(-c3ncc4c(N5C[C@H]6CC[C@@H](C5)N6C(=O)C=C)nc(OCC56CCCN5CCC6)nc4c3F)c12` [Example 3, 1-((1R,5S)-3-(7-(8-ethynyl-7-fluoronaphthalen-1-yl)-8-fluoro-2-((tetrahydro-1H-pyrrolizin-7a(5H)-yl)methoxy)pyrido[4,3-d]pyrimidin-4-yl)-3,8-diazabicyclo[3.2.1]octan-8-yl)prop-2-en-1-one] was run?
Answer: 39.1 nM

Question: What about the IC50 [2] of the same compound?
Answer: 3.19 nM

Question: Which IC50 [1] does the source give for `C#Cc1c(F)ccc2cc(O)cc(-c3ncc4c(N5C[C@H]6CC[C@@H](C5)N6C(=O)C=C)nc(OC[C@@H]5CCCN5C)nc4c3F)c12` [Example 6, 1-((1R,5S)-3-(7-(8-ethynyl-7-fluoro-3-hydroxynaphthalen-1-yl)-8-fluoro-2-(((S)-1-methylpyrrolidin-2-yl)methoxy)pyrido[4,3-d]pyrimidin-4-yl)-3,8-diazabicyclo[3.2.1]octan-8-yl)prop-2-en-1-one] here?
Answer: 0.38 nM

Question: And the IC50 [2]?
Answer: 0.36 nM

Question: Which IC50 [2] does the source give for `C#Cc1c(F)ccc2cc(O)cc(-c3ncc4c(N5C[C@H]6CC[C@@H](C5)N6C(=O)C=C)nc(OC[C@@]5(C)C[C@@H](F)CN5C)nc4c3F)c12` [Example 14, 1-((1R,5S)-3-(7-(8-ethynyl-7-fluoro-3-hydroxynaphthalen-1-yl)-8-fluoro-2-(((2R,4R)-4-fluoro-1,2-dimethylpyrrolidin-2-yl)methoxy)pyrido[4,3-d]pyrimidin-4-yl)-3,8-diazabicyclo[3.2.1]octan-8-yl)prop-2-en-1-one] here?
Answer: 0.99 nM

Question: `C#Cc1c(F)ccc2cc(O)cc(-c3ncc4c(N5C[C@H]6CC[C@@H](C5)N6C(=O)C=C)nc(OC[C@]5(C)CCCN5C)nc4c3F)c12` [Example 12, 1-((1R,5S)-3-(2-(((S)-1,2-dimethylpyrrolidin-2-yl)methoxy)-7-(8-ethynyl-7-fluoro-3-hydroxynaphthalen-1-yl)-8-fluoropyrido[4,3-d]pyrimidin-4-yl)-3,8-diazabicyclo[3.2.1]octan-8-yl)prop-2-en-1-one] was tested. Which IC50 [1] did it give?
Answer: 49.7 nM

Question: And the IC50 [2]?
Answer: 1.5 nM
